Consider one compound from US10246498B2, “Genetically encoded histone reporter allele constructs” (THE JOHNS HOPKINS UNIVERSITY, priority 2014, dated 2019).

For the assay, the system named is H3K4me3 in the GCL. Put plainly: Immunofluorescence of H3K4me3 in dentate gyrus GCL after oral AR-42. The class given is in vivo, mouse. From the text:
Kmt2d^+/βGeo mice, also named Mll2Gt^(RRt024)Byg, were acquired from Bay Genomics (University of California). All experimental mice were on a mixed C57BL/6J and 129/SvEv background. Expected Mendelian ratios were observed when heterozygous animals were bred to wild-type. In heterozygous crosses, however, there was uniform embryonic lethality of homozygotes by ED12, the earliest developmental stage assayed. For treatment with AR-42, mice were orally gavaged daily with drug (Selleck Chemicals, Houston, Tex.) solubilized in vehicle (0.5% methylcellulose, 0.1% Tween-80, water) or with vehicle alone. Drug delivery information was kindly provided by Drs. […] For quantification of DCX positive cells, doses of 0, 5, 10 and 25 mg/kg/day were used. […] Maxillary protrusion was evaluated by ten investigators blinded to genotype and they were asked to rate maxillary protrusion on radiographs as either large (2) or small (1). […]
Z-stack images of slides were taken at either 10× using Zeiss Axiovert 200 with 510-Meta confocal module (Carl Zeiss, Jena, GER) or 25× using Zeiss AxioExaminer with 710NLO-Meta multiphoton (Carl Zeiss, Jena, GER). From 10× pictures, the GCL was highlighted and fluorescent intensities for both DAPI and H3K4me3 were measured at the midpoint of the entire z-stack (Zen software, Carl Zeiss, Jena, GER) with the value for Kmt2d^+/+ animals set equal to one. […]

Molecules are shown by their SMILES. “Also recorded” adds a separate entry of the source.

`CC(C)[C@H](C(=O)Nc1ccc(C(=O)NO)cc1)c1ccccc1` [AR-42]: the “H3K4me3 in the GCL” value (25 mg/kg/day, oral, two weeks) was “increased H3K4 trimethylation; also recorded: increased H3K4me3”; the “H3K4me3 in the GCL” value (5 and 10 mg/kg/day, both genotypes) is “dose-dependent increase in H3K4me3”.
